Some test systems named below: CCRF-CEM; HCC 2998; HCT-15; HOP-62; HOP-92; Malme-3M; NCI-H460; OVCAR-3; OVCAR-5; SF-539; SK-MEL-2; SK-MEL-5; SK-OV-3; SNB-75; UACC-62; UO-31.
What all share (test): NCI tumour cell line growth inhibition, 48 h

We go through five molecules from ChEMBL document CHEMBL1201862, “PubChem BioAssay data set” (2004).

The structures appear in SMILES notation.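 Assay format: 96-well plates, 48-hour exposure. GI50 marks 50% less growth.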 Calls of active or inactive are those of the source. Cut-off read from the data, not from the text of the source: active = GI50 up to about 1.1 µM and inactive = higher. A value given as a limit tells only on which side of the number the result lay.

Take `CNC(=O)NCCCCC(NC(C)=O)C(=O)NCc1ccccc1` (stereo unspecified): the GI50 with CCRF-CEM is > 100 µM (inactive); with HCC 2998, > 100 µM (inactive); in the assay with HCT-15 it was > 100 µM; in the assay on HOP-62 it was > 100 µM (inactive); in the assay on HOP-92 it was > 100 µM (inactive); in the assay on Malme-3M it was > 100 µM (inactive). In addition, the GI50 in the assay on NCI-H460, in the assay with OVCAR-3, in the assay on OVCAR-5, in the assay on SF-539, in the assay with SK-MEL-2 and with SK-MEL-5 was > 100 µM (inactive) each time. Moreover, the GI50 in the assay with SK-OV-3 was > 100 µM (inactive); in the assay on SNB-75, 47.1 µM (inactive); with UACC-62, > 100 µM (inactive); in the assay on UO-31, > 100 µM (inactive).
With `CC/C(C)=C1\CCC(CN(C)C)C1=O` (stereo unspecified), the GI50 in the assay with CCRF-CEM is 15.9 µM (inactive); in the assay with HCC 2998, 25.2 µM (inactive); in the assay on HCT-15 it was 15.8 µM; with HOP-62 it was 42.2 µM (inactive); in the assay on HOP-92, 23.2 µM (inactive); in the assay with Malme-3M it was 22 µM (inactive). Also, the GI50 was 19.3 µM (inactive) with NCI-H460; 19.1 µM (inactive) in the assay with OVCAR-3; 19.1 µM (inactive) in the assay on OVCAR-5; 18.7 µM (inactive) with SF-539; 17.6 µM (inactive) with SK-MEL-2; 33.3 µM (inactive) in the assay on SK-MEL-5. In addition, the GI50 in the assay on SNB-75 is 16.3 µM (inactive); with UACC-62, 33.3 µM (inactive); in the assay with UO-31, 20.2 µM (inactive).
Consider `CN(C)C(=S)/N=c1\ssc(=S)n1C1CCCCC1`, for which the GI50 with CCRF-CEM was 0.23 µM (active); with HCC 2998, 37.1 µM (inactive); in the assay on HCT-15, 33.1 µM; with HOP-62, > 100 µM (inactive); in the assay with HOP-92, 35.2 µM (inactive); with Malme-3M, 23.4 µM (inactive). Further, the GI50 in the assay with NCI-H460 is 18 µM (inactive); with OVCAR-5 it was 74.1 µM (inactive); with SF-539, 20.7 µM (inactive); in the assay with SK-MEL-2, 52.8 µM (inactive); in the assay with SK-MEL-5 it was 12.4 µM (inactive); with SK-OV-3 it was > 100 µM (inactive). For the same molecule, the GI50 in the assay with SNB-75 is 42.7 µM (inactive); in the assay on UACC-62, 10.4 µM (inactive); in the assay with UO-31 it was 61.1 µM (inactive).
Consider `COc1ccc(CN2C(=O)[C@@H]3Cc4c(OC)c(C)c(OC)c(OC)c4[C@H](/C2=C\c2cc(OC)c(OC)c(C)c2OC)N3C(=O)OC(C)C)cc1`, for which the GI50 with CCRF-CEM is 35.4 µM (inactive); in the assay on HCC 2998, 22.4 µM (inactive); in the assay with HOP-62 it was 65 µM (inactive); with HOP-92, 8.04 µM (inactive); in the assay with Malme-3M, 41.2 µM (inactive); with NCI-H460 it was 15.8 µM (inactive). Further, the GI50 in the assay on OVCAR-3 is 99.1 µM (inactive); in the assay on OVCAR-5 it was > 100 µM (inactive); in the assay with SF-539, > 100 µM (inactive); in the assay on SK-MEL-2, 91.8 µM (inactive); in the assay with SK-MEL-5, 29.4 µM (inactive); in the assay on SK-OV-3 it was 32.5 µM (inactive). The GI50 is > 100 µM (inactive) in the assay with SNB-75, 48.6 µM (inactive) in the assay with UACC-62 and 36.5 µM (inactive) in the assay on UO-31.
As for `CSc1nc(Cl)c(Br)c(Sc2nc(N)nc3nc[nH]c23)n1`, the GI50 in the assay on CCRF-CEM was 2.77 µM (inactive); with HCC 2998, 3.79 µM (inactive); in the assay with HCT-15, 5.66 µM; with HOP-62, 2 µM (inactive); in the assay with HOP-92, 7.28 µM (inactive); in the assay on Malme-3M, 13.4 µM (inactive). Moreover, the GI50 was 5.07 µM (inactive) in the assay on NCI-H460; 15.2 µM (inactive) in the assay with OVCAR-3; 11.8 µM (inactive) with OVCAR-5; 2.81 µM (inactive) in the assay on SF-539; 4.78 µM (inactive) with SK-MEL-2; 12.5 µM (inactive) with SK-MEL-5. Further, the GI50 is 3.03 µM (inactive) with SNB-75, 3.52 µM (inactive) in the assay with UACC-62 and 5.01 µM (inactive) in the assay with UO-31.
